The results in this text go back to patent US9422239B1, “Dual PPAR-δ PPAR-γ agonists” (Auburn University, priority 2013, dated 2016).

The subject of test [1] is C2C12 skeletal muscle cells. Kind of test: Mitochondrial biogenesis markers by quantitative RT-PCR. Type of test: cell-based. Conditions: 4 days. As for the experimental part: Therefore, to test the effects of the novel compounds on mitochondrial biogenesis, C2C12 skeletal muscle cells were cultured and treated with the novel compounds for 4 days. Changes associated with markers for mitochondrial biogenesis were determined by quantitative real time PCR.

The next test relates to PPARγ targets. The experiment in a line: PPARγ target gene (mRNA) expression in hippocampi by qRT-PCR. The format is in vivo, mice. Conditions: 1 mg/kg orally, compared to rosiglitazone (ICV) and control. As for the experimental part:
Male C57/b16 and leptin deficient (db/db) mice were purchased from Jackson Laboratories (Bar Harbor, Me.). Animals were maintained in 12 hours of dark-light cycle. […] Both drugs were suspended in sterile saline. Four additional groups comprised the control portion of the study and received physiological saline in the place of the drug treatment either orally or by ICV. […] All treatments extended for 2 weeks.
Total RNA was isolated from hippocampi using RNAeasy Lipid Tissue Mini Kit (Qiagen, Valencia, Calif.) and was converted to cDNA (iScript cDNA synthesis kit—Bio Rad, Hercules, Calif.). Real-time PCR was performed in triplicate using a RT2 SYBR Green/Fluorescein fast master mix (SA-Bioscience) and an iCycler real-time PCR thermocycler (Bio-Rad). Gene expression was normalized to β-actin. Relative gene expression was determined by the comparative CT method (30). The data is presented as mean+/−SEM.

Another test has as its system db/db mice. Kind of test: Y maze behavioral test, compound 9. Conditions: oral, 1 mg/kg. Type of test: in vivo. As for the experimental part: Groups of mice can be subjected to Y-maze tests and object recognition tests (ORT) to determine the improvement of working and declarative memory. Briefly the Y-maze test involves the novel arm being blocked, so mice are allowed to explore the other two arms for 15 minutes. Appropriate external and internal cues are assigned for each arm. After 15 minute training sessions, the mice are caged in the same room for 4 hours (holding session) followed by the novel arm exploration where mice are allowed to explore the novel arm for […].

The test system of the next test is H19-7 hippocampal cells. Kind of test: BDNF, post synaptic markers and spine formation in H19-7 hippocampal cells. The format is cell-based. The text has this: As shown in FIGS. 15A & B, reduced BDNF protein and gene expression is observed in db/db hippocampi which helps explain the observation that diabetes attenuates the expression of post synaptic receptor expression levels in db/db mice hippocampi.
As mentioned above, BDNF is known to induce synaptogenesis, spine density, and post synaptic receptor expression in neurons but has been previously shown to be reduced in AD brains.
The novel compounds (e.g., compound 9) have been developed as tools to better study the effects of PPARγ activation in the hippocampus upon cognition in AD.

A further test has as its target T1, PPARδ (PDK4-PPRE) (Homo sapiens, UniProt Q03181).
T1 construct: expressed in transfected cells; host or cells: HEK-293
T1 sequence (Q03181 1-441): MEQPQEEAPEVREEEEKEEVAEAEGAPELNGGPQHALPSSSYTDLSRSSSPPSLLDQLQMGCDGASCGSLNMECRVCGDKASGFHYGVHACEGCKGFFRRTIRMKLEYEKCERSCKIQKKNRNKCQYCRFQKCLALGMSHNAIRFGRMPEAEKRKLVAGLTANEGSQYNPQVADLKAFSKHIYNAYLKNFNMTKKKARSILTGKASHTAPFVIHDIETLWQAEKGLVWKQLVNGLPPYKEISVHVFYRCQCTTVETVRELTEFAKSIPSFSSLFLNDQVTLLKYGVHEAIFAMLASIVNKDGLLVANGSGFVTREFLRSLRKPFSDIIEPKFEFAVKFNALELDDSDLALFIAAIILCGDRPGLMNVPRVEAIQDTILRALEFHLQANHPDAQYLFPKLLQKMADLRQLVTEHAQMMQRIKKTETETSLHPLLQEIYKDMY
T1 sequence (P19793 1-462 partner): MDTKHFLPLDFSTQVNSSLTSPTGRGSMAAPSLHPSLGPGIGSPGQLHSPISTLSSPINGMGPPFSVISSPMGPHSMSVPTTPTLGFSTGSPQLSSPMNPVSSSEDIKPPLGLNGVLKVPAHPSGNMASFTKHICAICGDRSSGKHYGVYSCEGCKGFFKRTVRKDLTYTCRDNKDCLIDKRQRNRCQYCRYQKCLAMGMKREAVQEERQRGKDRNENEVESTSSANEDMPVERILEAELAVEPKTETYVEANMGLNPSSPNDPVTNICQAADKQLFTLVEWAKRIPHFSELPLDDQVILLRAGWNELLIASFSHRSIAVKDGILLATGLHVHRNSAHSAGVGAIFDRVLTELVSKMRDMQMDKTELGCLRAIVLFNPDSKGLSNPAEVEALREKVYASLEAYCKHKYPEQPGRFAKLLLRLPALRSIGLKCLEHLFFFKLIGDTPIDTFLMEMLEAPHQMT
The experiment in a line: PDK4-PPRE luciferase assay in HEK-293 cells. The format is cell-based. The text has this: To validate the specificity of the novel compounds towards activation of PPARγ/δ targets, we tested the compounds capacity to bind to select PPARγ/δ Peroxisome Proliferator Response Elements (PPRE). The PPRE are unique sites located in the promoter region where PPARs bind and transcriptionally activate the target genes. AP2-PPRE is the PPARγ target involved in adipocyte growth and differentiation. PDK4-PPRE is a PPARδ target involved in regulating energy metabolism in the cell. These PPREs were inserted into a PGL3 luciferase vectors containing CMV promoters (ADDGENE) using PCR. These vectors were co-transfected with RXR, PPARγ/PPARδ and p-galactosidase vectors into HEK-293 cells using Lipofectamine 2000 (Invitrogen). Relative light units (RLU) were measured using a Glomax Luminometer (Promega). Data were standardized to p-galactosidase activity using ONPG (Promega).

In the case of `Cc1ccc(CNCCCN(Cc2ccc(C(=O)O)cc2)Cc2cc(C(F)(F)F)cc(C(F)(F)F)c2)cc1` [Compound 9], in test [1], the “Cytochrome oxidase c 4-2 subunit expression” value is given as “significantly increased” and the “Gene expression of mitochondrial markers” value is reported as “increases”. In addition, in the test with PPARγ targets, the “Activation of PPARγ targets in hippocampi (mRNA expression)” value was “selective activation of PPARγ targets”. The “Cognition in Y maze behavioral tests” value in the test with db/db mice was “improves cognition”. In addition, the “Post synaptic density marker PSD95 expression” value in the test on H19-7 hippocampal cells (H19-7 cells, western analysis) was “increase”. In the test with H19-7 hippocampal cells (H19 cells), the BDNF expression entry is on record as “increase” and the Spine formation entry was “promotes spine formation”. Besides, the “Binding affinity for the PDK4-PPRE” value at PPARδ (PDK4-PPRE) is “strong binding affinity”.
